Measurements taken from PubChem BioAssay AID2060352 (Molecular Pharmacology Branch, DTP, NCI, 2025).
pIC50: −log10 of the molar value. “And” between values parts separate entries of the source, which are not always exact repeats. Equal entries are not always repeated.

Test system: 616215-338-R-J1-PDC spheroid with HUVEC/MSC, viability
Test: Anticancer human tumor 616215-338-R-J1-PDC patient-derived colon adenocarcinoma cell line growth inhibition [TAK]
Details: for viability, T/C: stronger effect = lower value
Text: Combinatorial screen of targeted agents with TAK-243 and ipatasertib in multi-cell type tumor spheroids
A high-throughput screen of multi-cell type tumor spheroids was designed to identify active combinations of targeted small molecules and TAK-243 or ipatasertib. Complex spheroids include a stromal component modeled by human endothelial cells (HUVEC) and fibroblasts modeled by human mesenchymal stem cells (MSCs). The concentration ranges selected for each drug and investigational agent were based upon clinically achievable concentrations if the clinical Cmax of the agent was known.
Compounds. The drugs and investigational agents: TAK-243 (785004), ipatasertib (767898), everolimus (733504), selumetinib (741078), bortezomib (756655), trametinib (758246), ixazomib (758254), vemurafenib (761431), dabrafenib (764134), sapanisertib (764658), alpelisib (765974), and copanlisib (816437), were obtained from the National Cancer Institute (NCI) Developmental Therapeutics Program Chemical Repository. The FDA-approved anticancer drug set is available from the NCI Developmental Therapeutics Program. […] The stock solutions were prepared in dimethyl sulfoxide (DMSO, Sigma-Aldrich, St. Louis, MO, cat. D2650) at 800-fold the tested concentration and stored at -70 degrees C prior to their use. All drugs and investigational agents were tested over a range starting from a high concentration at or near the clinical Cmax and decreasing in half-log increments. If the clinical Cmax for an agent had not been determined, the highest concentration tested was 10 microM.
NCI60 Cell Culture. NCI60 cell lines were obtained from the NCI Developmental Therapeutics Program Tumor Repository. For each lot of cells, the Repository performed Applied Biosystems AmpFLSTR Identifiler testing with PCR amplification to confirm consistency with the published Identifier STR profile for each cell line. Cells were kept in continuous culture for no more than 20 passages. The optimal seeding densities for each of the cell lines at each time point assessed were determined prior to performing the concentration response studies. Briefly, the NCI60 human tumor lines were grown as monolayers in RPMI 1640 medium supplemented with 10% FBS and 2 mmol/L L-glutamine.
An additional 2 lines were from the NCI60 cell line panel including melanomas, MALME-3M and SK-MEL-2. Pooled donor human umbilical vein endothelial cells (HUVEC, Lonza, cat. CC-2519) and human mesenchymal stem cells (hMSC, Lonza, cat. PT-2501) were purchased from Lonza (Walkersville, MD).
PDMR cell lines were grown in complete medium (DC medium): Dulbecco's modified Eagle's medium (DMEM)/F12 supplemented with 5% fetal bovine serum (FBS), 2 mM L-glutamine, 100 U/mL penicillin and 100 µg/ml streptomycin, 0.4 µg/ml hydrocortisone, 10 ng/ml epidermal growth factor (EGF) recombinant human protein, 24 µg/mL adenine, and 0.1 mg/mL primocin. During culture from frozen stock vials, PDMR cells were cultured in the same medium containing 10 µM Y-27632 (see Table 3). The PDCs were cultured in complete DMEM/F12 media without 10 microM Y-27632 dihydrochloride for at least two passages prior to the screen. The pooled donor HUVEC and hMSC were cultured in endothelial cell growth medium 2 (PromoCell, Heidelberg, Germany, cat. C-22011) and mesenchymal stem cell growth medium 2 (PromoCell, cat. C-28009), respectively. For all experiments, HUVEC and hMSC were used at passages </=5.
For the pre-screen, cell seeding densities were determined from a titration spanning the range from 5,000 to 313 cells per well. The mct-spheroids including 60% malignant cells, 25% HUVEC and 15% MSC dispensed as a mixture into U-bottom Ultra-Low Attachment 384-well plates (Corning, NY)
High-throughput Drug Combination Screening.
Prior to their inoculation into 384-well plates, malignant cells, HUVEC, and hMSC were removed from T flasks using TrypLE express (Thermo Fisher Scientific, cat. 12605036) and harvested by centrifugation for 5 min at 233 x g. […]

[1] = curve of first compound, second compound 0.3 µM
[2] = curve of first compound, second compound 0.949 µM
[3] = curve of first compound, second compound 3 µM
[4] = curve of first compound, second compound 9.49 µM
[5] = curve of first compound, second compound 30 µM
[6] = second compound 0.3 µM, first compound 0.0316 µM
[7] = second compound 0.3 µM, first compound 0.1 µM
[8] = second compound 0.3 µM, first compound 0.316 µM
[9] = second compound 0.3 µM, first compound 1 µM
[10] = second compound 0.3 µM, first compound 3.16 µM
[11] = second compound 0.3 µM, first compound 10 µM
[12] = second compound 0.949 µM, first compound 0.0316 µM
[13] = second compound 0.949 µM, first compound 0.1 µM
[14] = second compound 0.949 µM, first compound 0.316 µM
[15] = second compound 0.949 µM, first compound 1 µM
[16] = second compound 0.949 µM, first compound 3.16 µM
[17] = second compound 0.949 µM, first compound 10 µM
[18] = second compound 3 µM, first compound 0.0316 µM
[19] = second compound 3 µM, first compound 0.1 µM
[20] = second compound 3 µM, first compound 0.316 µM
[21] = second compound 3 µM, first compound 1 µM
[22] = second compound 3 µM, first compound 3.16 µM
[23] = second compound 3 µM, first compound 10 µM
[24] = second compound 9.49 µM, first compound 0.0316 µM
[25] = second compound 9.49 µM, first compound 0.1 µM
[26] = second compound 9.49 µM, first compound 0.316 µM
[27] = second compound 9.49 µM, first compound 1 µM
[28] = second compound 9.49 µM, first compound 3.16 µM
[29] = second compound 9.49 µM, first compound 10 µM
[30] = second compound 30 µM, first compound 0.0316 µM
[31] = second compound 30 µM, first compound 0.1 µM
[32] = second compound 30 µM, first compound 0.316 µM
[33] = second compound 30 µM, first compound 1 µM
[34] = second compound 30 µM, first compound 3.16 µM
[35] = second compound 30 µM, first compound 10 µM
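Note: spheroids exposed to drugs for 7 days before readout.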

## Cc1nc(NC(=O)N2CCCC2C(N)=O)sc1-c1ccnc(C(C)(C)C(F)(F)F)c1 (stereo not drawn) + CC(C)NCC(C(=O)N1CCN(c2ncnc3c2C(C)CC3O)CC1)c1ccc(Cl)cc1
[1]
  pIC50: < 5.00
[2]
  pIC50: < 5.00
[3]
  pIC50: 5.56
[4]
  pIC50: > 7.50
[5]
  pIC50: > 7.50
[6]
  viability, T/C: 101%
[7]
  viability, T/C: 113%
[8]
  viability, T/C: 127%
[9]
  viability, T/C: 112%
[10]
  viability, T/C: 119%
[11]
  viability, T/C: 83.3%
[12]
  viability, T/C: 120%
[13]
  viability, T/C: 119%
[14]
  viability, T/C: 128%
[15]
  viability, T/C: 119%
[16]
  viability, T/C: 110%
[17]
  viability, T/C: 51.3%
[18]
  viability, T/C: 94.9%
[19]
  viability, T/C: 91%
[20]
  viability, T/C: 80%
[21]
  viability, T/C: 52.2%
[22]
  viability, T/C: 59.3%
[23]
  viability, T/C: 37.8%
[24]
  viability, T/C: 28%
[25]
  viability, T/C: 27.4%
[26]
  viability, T/C: 25.1%
[27]
  viability, T/C: 24.9%
[28]
  viability, T/C: 21.5%
[29]
  viability, T/C: 16.1%
[30]
  viability, T/C: 14.2%
[31]
  viability, T/C: 14.4%
[32]
  viability, T/C: 11.4%
[33]
  viability, T/C: 11.3%
[34]
  viability, T/C: 10%
[35]
  viability, T/C: 6.48%

## CC(C)n1nc(-c2ccc3oc(N)nc3c2)c2c(N)ncnc21 + CC(C)NCC(C(=O)N1CCN(c2ncnc3c2C(C)CC3O)CC1)c1ccc(Cl)cc1
[1]
  pIC50: 7.07
[2]
  pIC50: 7.74
[3]
  pIC50: 8.56
[4]
  pIC50: > 9.50
[5]
  pIC50: > 9.50
Second compound 0.3 µM, first compound 0.000316 µM
  viability, T/C: 93.5%
Second compound 0.3 µM, first compound 0.001 µM
  viability, T/C: 99.9%
Second compound 0.3 µM, first compound 0.00316 µM
  viability, T/C: 107%
Second compound 0.3 µM, first compound 0.01 µM
  viability, T/C: 130%
[6]
  viability, T/C: 112%
[7]
  viability, T/C: 41.2%
Second compound 0.949 µM, first compound 0.000316 µM
  viability, T/C: 112%
Second compound 0.949 µM, first compound 0.001 µM
  viability, T/C: 119%
Second compound 0.949 µM, first compound 0.00316 µM
  viability, T/C: 109%
Second compound 0.949 µM, first compound 0.01 µM
  viability, T/C: 66.6%
[12]
  viability, T/C: 36.7%
[13]
  viability, T/C: 22.3%
Second compound 3 µM, first compound 0.000316 µM
  viability, T/C: 77.2%
Second compound 3 µM, first compound 0.001 µM
  viability, T/C: 74.2%
Second compound 3 µM, first compound 0.00316 µM
  viability, T/C: 43.5%
Second compound 3 µM, first compound 0.01 µM
  viability, T/C: 28.2%
[18]
  viability, T/C: 17.5%
[19]
  viability, T/C: 13.7%
Second compound 9.49 µM, first compound 0.000316 µM
  viability, T/C: 28.6%
Second compound 9.49 µM, first compound 0.001 µM
  viability, T/C: 25.8%
Second compound 9.49 µM, first compound 0.00316 µM
  viability, T/C: 19%
Second compound 9.49 µM, first compound 0.01 µM
  viability, T/C: 13.1%
[24]
  viability, T/C: 11%
[25]
  viability, T/C: 10.2%
Second compound 30 µM, first compound 0.000316 µM
  viability, T/C: 12.6%
Second compound 30 µM, first compound 0.001 µM
  viability, T/C: 11.5%
Second compound 30 µM, first compound 0.00316 µM
  viability, T/C: 11.4%
Second compound 30 µM, first compound 0.01 µM
  viability, T/C: 7.84%
[30]
  viability, T/C: 7.49%
[31]
  viability, T/C: 7.08%

## CC(C)CC(NC(=O)C(Cc1ccccc1)NC(=O)c1cnccn1)B(O)O (stereo not drawn)
Compound 31.6 pM
  viability, T/C: 98.1% and 102%
Compound 0.0001 µM
  viability, T/C: 115% and 110%
Compound 0.000316 µM
  viability, T/C: 101% and 108%
Compound 0.001 µM
  viability, T/C: 92.3% and 103%
Compound 0.00316 µM
  viability, T/C: 107% and 102%
Curve of compound
  pIC50: < 8.00 and 8.24

## CC(C)CC(NC(=O)CNC(=O)c1cc(Cl)ccc1Cl)B1OC(=O)CC(CC(=O)O)(C(=O)O)O1 (stereo not drawn)
Compound 0.000316 µM
  viability, T/C: 93.3% and 102%
Compound 0.001 µM
  viability, T/C: 97.9% and 110%
Compound 0.00316 µM
  viability, T/C: 104% and 111%
Compound 0.01 µM
  viability, T/C: 95.5% and 107%
Compound 0.0316 µM
  viability, T/C: 7.86% and 10.7%
Compound 0.1 µM
  viability, T/C: 0.16% and 0.17%
Curve of compound
  pIC50: 7.74 and 7.71

## CC(C)(C)c1nc(-c2cccc(NS(=O)(=O)c3c(F)cccc3F)c2F)c(-c2ccnc(N)n2)s1 + CC(C)NCC(C(=O)N1CCN(c2ncnc3c2C(C)CC3O)CC1)c1ccc(Cl)cc1
[1]
  pIC50: 5.27
[2]
  pIC50: 6.08
[3]
  pIC50: 6.74
[4]
  pIC50: > 7.50
[5]
  pIC50: > 7.50
[6]
  viability, T/C: 130%
[7]
  viability, T/C: 140%
[8]
  viability, T/C: 156%
[9]
  viability, T/C: 138%
[10]
  viability, T/C: 77.8%
[11]
  viability, T/C: 17.5%
[12]
  viability, T/C: 141%
[13]
  viability, T/C: 132%
[14]
  viability, T/C: 87%
[15]
  viability, T/C: 43.1%
[16]
  viability, T/C: 22%
[17]
  viability, T/C: 10.1%
[18]
  viability, T/C: 63.5%
[19]
  viability, T/C: 69%
[20]
  viability, T/C: 35.1%
[21]
  viability, T/C: 16.8%
[22]
  viability, T/C: 10.3%
[23]
  viability, T/C: 7.4%
[24]
  viability, T/C: 21.2%
[25]
  viability, T/C: 19.9%
[26]
  viability, T/C: 15.2%
[27]
  viability, T/C: 8.91%
[28]
  viability, T/C: 5.79%
[29]
  viability, T/C: 6.27%
[30]
  viability, T/C: 8.84%
[31]
  viability, T/C: 10.3%
[32]
  viability, T/C: 7.86%
[33]
  viability, T/C: 6.37%
[34]
  viability, T/C: 3.65%
[35]
  viability, T/C: 3.34%
